The values below are quoted from earlier work in US7625888B2, “Fused triazole derivatives as dipeptidyl peptidase-IV inhibitors for the treatment or prevention of diabetes” (Merck & Co., Inc., priority 2004, dated 2009).

One data set has as its system cardiac allograft. Particulars: rats; doubled from day 7.
A further data set deals with hematopoiesis. Particulars: mouse, cyclophosphamide-induced neutropenia.
In another data set the target is T1, DPP-IV (Homo sapiens, UniProt P27487).
T1 construct: GRF is rapidly degraded in plasma to GRF[3-44]
T1 sequence (P27487 39-766 limits assumed, species assumed): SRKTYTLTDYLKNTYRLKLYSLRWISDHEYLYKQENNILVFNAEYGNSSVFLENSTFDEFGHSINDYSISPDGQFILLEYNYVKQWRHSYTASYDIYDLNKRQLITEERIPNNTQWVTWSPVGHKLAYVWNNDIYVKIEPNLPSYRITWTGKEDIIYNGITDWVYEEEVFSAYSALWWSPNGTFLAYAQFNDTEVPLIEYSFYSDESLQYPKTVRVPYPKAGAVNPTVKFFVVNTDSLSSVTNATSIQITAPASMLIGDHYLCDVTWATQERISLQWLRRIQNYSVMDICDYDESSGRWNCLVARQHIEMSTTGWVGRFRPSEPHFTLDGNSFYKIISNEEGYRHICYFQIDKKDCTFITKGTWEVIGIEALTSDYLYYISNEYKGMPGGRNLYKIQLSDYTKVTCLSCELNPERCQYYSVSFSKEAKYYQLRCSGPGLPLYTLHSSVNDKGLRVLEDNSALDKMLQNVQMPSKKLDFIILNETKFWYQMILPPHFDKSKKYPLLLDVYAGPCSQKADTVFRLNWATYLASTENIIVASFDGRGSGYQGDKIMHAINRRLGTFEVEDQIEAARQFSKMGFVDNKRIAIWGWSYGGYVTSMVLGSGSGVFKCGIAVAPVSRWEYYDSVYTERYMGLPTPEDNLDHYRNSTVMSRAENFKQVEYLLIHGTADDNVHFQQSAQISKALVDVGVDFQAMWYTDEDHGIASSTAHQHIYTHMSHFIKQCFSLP

For the compound `CC(C)N1CCC(c2ccccc2)(c2ccccc2)CC1` [Prodipine, Pro-Pro-diphenyl-phosphonate], in the data set on cardiac allograft, the cardiac allograft survival is 14 day.

`CC(C)[C@H](N)C(=O)N1CCC[C@H]1B(O)O` [Val-Boro-Pro]: the effect on hematopoiesis entry in the data set with hematopoiesis is “stimulated hematopoiesis”.

Take diprotin A: the “degradation of GRF in plasma to GRF[3-44]” value on DPP-IV is given as “prevented”.
